# Laboratory results published in patent US20040171687A1 (priority 2002, published 2004).
# System: human skin
# Assay: Human skin contact with acidic solution
# Settings: solution with a pH of less than 0.5
smiles,measurement,value
O=S(=O)(O)O [sulfuric acid],irritation or injury of the hand put into the solution,an irritation would occur within a relatively short span of time
